The values below come from US6136992A, “2-alkoxy estradiols and derivatives thereof” (The United States of America as represented by the …, priority 1998, dated 2000).

The test has as its system HL-60(TB). Nature of the test: NCI screen, leukemia. The note with it: Homo sapiens, read-out: Log10 GI50, HL-60(TB) (converted). Type of test: cell-based.

Usually GI50 stands for the concentration at which growth is held to half of that of the control. Turning to `C[C@]12CC[C@@H]3c4cc(OCC(F)(F)F)c(O)cc4C(=NO)C[C@H]3[C@@H]1CC[C@@H]2O` [Compound 12, 2-(2',2', 2'-Trifluoroethoxy)-6-Hydroximino-Estra-1,3,5(10)-Triene-3,17β-Diol], the GI50 was less than 10 nM.
